The conditions of the series: pH 7.4.
Method: The solutions were put into a chamber of a Brookfield DV-III+ Rheometer equipped with a thermostatic bath (TC-501). The sol-gel phase transition was observed while raising the temperature at the rate of 0.04° C./min and a shear rate of 0.1 to 1.7 per second.
(maximum) gelling temp. (temperature)” means the temperature where the viscosity of the polymer solution reaches the maximum point, and the term “Max. gel solidity” means the maximum viscosity of the polymer solution.
As to “poly[(isoleucine ethyl ester)(aminomethoxypolyethylene glycol 550)(tyramine)phosphazene] [Example 18]”, the Max. gelling temp. was 34 °C.

“[(isoleucine ethyl ester)(aminomethoxypolyethylene glycol 550)(aminoethylmethacrylate)phosphazene] [Example 2]” returned a Max. gelling temp. of 28 °C.

In turn, “poly[(isoleucine ethyl ester)(aminomethoxypolyethylene glycol 550)(aminoethylmethacrylate)phosphazene] [Example 4]” returned a Max. gelling temp. of 39 °C.

As for “poly[(isoleucine ethyl ester)(aminomethoxypolyethylene glycol 550)(cysteine ethyl ester)phosphazene] [Example 10]”, the Max. gelling temp. amounted to 32 °C.

These data come from patent US8313771B2, “Phosphazene hydrogels with chemical corss-link, preparation method thereof and use thereof” (Korea Institute of Science and Technology, priority 2007, dated 2012).
